Positions of bridges follow the written chain, without caps; N, C: chain ends. Residues, ends and D or L forms follow the SMILES beside them.
Key:
[1] = test system: peripheral blood mononuclear cells (PBMC); format: cell-based, human; details: PBMC from 3 healthy donors; peptide 0.1 and 5 mg/ml; 6 and 24 h, 37 °C; trypan blue counting and DAPI flow cytometry
Description: (§1) Then, we measured the cell death by counting the cells using trypan blue and by flow cytometry using 4′,6-diamidino-2-phenylindole dihydrochloride (DAPI).
Blood samples were also collected from healthy volunteers through the local Swiss blood bank. Fresh peripheral blood mononuclear cells were purified by density gradient centrifugation (Isopaque-Ficoll) within 2 h after blood sampling. Cells were cryopreserved in RPMI medium 1640 supplemented with 40% FCS and 10% DMSO.
Then, 2 × 10^4 total PBMC per well (96-well plate) was cultured with or without the HVEM (14–39) peptide at 5 or 0.1 mg/mL in RPMI 1640 supplemented with 10% FCS, 1% penicillin-streptomycin, and 25 mM HEPES. After 6 and 24 h at 37 °C, cells were harvested counted with Trypan blue exclusion. Cells were then labeled with DAPI and analyzed by flow cytometry to determine the percentage of cell death. […]
medium at time points (from the bottom) = 0h, 2h, 3h, 6h and 24h (gradient 5-100%B in 60 […]
Figure S6. 293T cells expressing human BTLA were incubated with different concentrations (0.1, 1 and 5 mg/ml) of peptide HVEM(14-39) prior labeling with rhHVEM-Fc and AF647-conjugated anti-human IgG antibody.
Fig. S7. Cytotoxic assay. PBMC from 3 healthy donors were incubated with HVEM(14-39) peptide at 0, 0.1 and 5 mg/ml in culture medium for 6 and 24h. Cells were subsequently counted and labelled with a dead cell marker. […]

[2] = test system: 293T cells; experiment: Toxicity on 293T cells (data not shown); format: cell-based, human; details: 5 mg/mL
Excerpt: as §1

[3] = molecular target: T1, BTLA protein (Homo sapiens, UniProt Q7Z6A9); experiment: SPR analysis of BTLA protein binding to immobilized HVEM (14–39) peptide
T1 construct: purchased Novoprotein C563
Description: To analyze the binding properties between BTLA and the HVEM (14–39) peptide, we performed the affinity measurements using SPR. Thus, the peptide extended by five glycine residues at the N-terminus and biotin was first immobilized on a streptavidin matrix-coated sensor chip. The BTLA protein was then injected at different concentrations (0, 1, 3, 5, 10, and 15 µM). […] Moreover, the SPR results reveal that the peptide binds approximately 8 times slower (k1 = 76400), and dissociates 36 times slower (k−1 = 0.00332) than does the HVEM protein (k1 = 620000 and k−1 = 0.12), which agrees with the theoretical results of simulations with crystal-based structure and NMR-based structure of the peptide (Table 1).
Figure 6 SPR analysis of the BTLA protein binding to the HVEM (14–39) peptide. Sensorgrams show the results of SPR analysis conducted on the binding of the indicated concentrations of BTLA protein (C = 0, 1, 3, 5, 10, and 15 μM) in HBS-EP buffer.
Recombinant human BTLA protein was purchased from Novoprotein (company product code: C563). Recombinant human BTLA-Fc, HVEM-Fc and anti-human BTLA (#7.1)-blocking mAb were a generous gift from Prof. D. Olive (Inserm U1068/CNRS U7258, Marseille, France). Anti-HVEM mAb was biotinylated according to the manufacturer’s instructions (Biotin Labeling Kit-NH2, Abnova, #KA0003).
Standard SPR analyses were performed using a Biacore T200 (GE Healthcare) instrument essentially as described in the manufacturer’s manual. BTLA protein binding was studied using the HVEM(14–39) peptide elongated by five glycine residues at the N-terminus and immobilized on a streptavidin matrix-coated Sensor Chip SA (GE Healthcare). The peptide was immobilized on the sensor surface to yield a final value of ~1100 RU. HBS-EP (150 mM NaCl, 10 mM HEPES pH 7.4, 3 mM EDTA, 0.05% Surfactant P20) was used as the running buffer. In all the experiments, the buffer flow was set to 30 µL/min, with all injections at a volume of 120 µL. The sensorchip surface was regenerated with 0.5 M NaCl and 10 mM glycine. The data obtained were analyzed using Biacore T200 Evaluation Software 3.1 (Biacore, GE Healthcare, USA). The results are presented as sensorgrams obtained after subtraction of the background response signal from control experiments with buffer injections.

[4] = molecular target: T2, BTLA/HVEM binding on 293T cells expressing human BTLA (Homo sapiens, UniProt Q7Z6A9); experiment: BTLA/HVEM interaction cell line assay (HVEM-Fc binding to 293T cells expressing BTLA, flow cytometry); format: cell-based; details: 293T cells expressing human BTLA preincubated with peptide 5 mg/mL, 1 h, 4 °C in PBS, then HVEM-Fc 8 μg/mL and AF647 anti-human IgG
T2 construct: Krummenacher, University of Pennsylvania; host or cells: 293T
Description: Figure 7 HVEM (14–39) peptide blocks BTLA/HVEM binding. 293T cells expressing human BTLA were incubated with peptides (5 mg/mL) prior to labeling with HVEM-Fc and AF647-conjugated anti-human IgG antibody. The blocking capacity of the HVEM (14–39) peptide was first compared to (A) a scrambled (Ac-[…]-NH2) peptide or (B) to variant peptides (Table S2).
Cells (293T) expressing BTLA (a generous gift from Dr. C. Krummenacher, University of Pennsylvania, USA) were maintained in culture with RPMI 10% FCS supplemented with 0.2 mg/mL hygromycin B. The cells (2 × 10^5) were incubated with HVEM-Fc (at 8 μg/mL in PBS containing 0.5% BSA) for 30 min at 4 °C. The cells were then washed and incubated with goat anti-human Fc conjugated with AF647 for 20 min at 4 °C in PBS containing 0.5% BSA (Jackson ImmunoResearch, #109–606–170). Inhibition of BTLA/HVEM binding by different peptides was assessed after preincubating the cells with different concentrations of the peptide (5, 1, and 0.1 mg/mL) for 1 h at 4 °C in PBS. After washing in PBS, the cells were stained for 20 min at 4 °C with an amine reactive dye (aqua live/dead stain kit, from Life Technologies, L34957) for dead cell exclusion. BTLA expression was controlled by anti-BTLA APC-conjugated antibody (Biolegend, #344510). Maximum inhibition of binding was determined by adding anti-BTLA7.1 antibody (2 μg/mL) for 1 h at 4 °C, before adding HVEM-Fc. Sample acquisition was performed on a Gallios Flow Cytometer (Beckman Coulter), and data were analyzed using FlowJo Software (TreeStar).

[5] = molecular target: HVEM 1-103 (Homo sapiens) (UniProt Q92956); experiment: SPR; details: cited from earlier work
[6] = molecular target: T3, Recombinant human BTLA-Fc (human, UniProt Q7Z6A9 31-157); experiment: affinity chromatography on a microcolumn, fractions read by MALDI-TOF MS; BTLA-Fc immobilised in a microcolumn; peptide incubated, excess removed, complex dissociated; supernatant, last wash and elution analysed by mass spectrometry; details: both partners purified
T3 construct: also called BTLA-Fc protein; immobilized BTLA protein; source: gift from Prof; D. Olive (recombinant)
T3 sequence (looked up): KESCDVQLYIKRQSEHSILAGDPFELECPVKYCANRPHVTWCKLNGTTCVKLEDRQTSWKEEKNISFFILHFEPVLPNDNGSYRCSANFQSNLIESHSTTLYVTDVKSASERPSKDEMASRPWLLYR

[7] = test system: BTLA; details: SPR, HVEM protein binding to BTLA; unit not given; cited from earlier work
Excerpt: Table 1 Rate constants: k1, k−1 and KD for the BTLA/HVEM and BTLA/HVEM (14–39) complexes determined using SPR and molecular dynamics simulation. […] SPR provided more accurate data. […] KD and affinity are inversely related, which means that the lower the KD value, the higher the affinity of the molecules. The HVEM (14–39) peptide binds and d ...

T2 sequence (Q7Z6A9 31-289): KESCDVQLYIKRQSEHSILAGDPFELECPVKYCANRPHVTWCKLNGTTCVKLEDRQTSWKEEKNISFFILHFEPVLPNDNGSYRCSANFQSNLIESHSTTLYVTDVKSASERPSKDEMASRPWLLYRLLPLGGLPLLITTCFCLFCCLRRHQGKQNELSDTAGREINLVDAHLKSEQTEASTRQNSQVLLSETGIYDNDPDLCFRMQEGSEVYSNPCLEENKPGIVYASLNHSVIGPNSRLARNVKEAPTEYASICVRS
HVEM 1-103 (Homo sapiens), sequence (Q92956 1-103): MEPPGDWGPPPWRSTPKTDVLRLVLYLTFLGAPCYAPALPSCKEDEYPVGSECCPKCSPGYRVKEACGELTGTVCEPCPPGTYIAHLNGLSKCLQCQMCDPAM

## CC(=O)N[C@@H](CCC(=O)O)C(=O)N[C@@H](CO)C(=O)N[C@H]1CSSC[C@@H]2NC(=O)[C@H](C)NC(=O)[C@H](CCC(=O)O)NC(=O)[C@H](CCCCN)NC(=O)[C@H](C(C)C)NC(=O)[C@H](CCCNC(=N)N)NC(=O)[C@H](Cc3ccc(O)cc3)NC(=O)CNC(=O)[C@@H]3CCCN3C(=O)[C@H](CO)NC(=O)[C@H](CSSC[C@@H](C(=O)N[C@@H](CCC(=O)O)C(=O)N3CCC[C@H]3C(N)=O)NC(=O)[C@H](C(C)C)NC(=O)[C@H]([C@@H](C)O)NC(=O)CNC(=O)[C@H]([C@@H](C)O)NC(=O)[C@H](CC(C)C)NC(=O)[C@H](CCC(=O)O)NC(=O)CNC2=O)NC(=O)[C@H](CCCCN)NC(=O)[C@@H]2CCCN2C1=O [HVEM (14–39)] (Ac-ESCPKCSPGYRVKEACGELTGTVCEP-NH2; disulfide 3-16, 6-24)
[1]
  cell death of PBMC: did not find any significant increase in cell death
[2]
  toxicity on 293T cells: did not observe any toxicity
[3]; SPR Biacore T200, peptide extended by five Gly and biotin at N-terminus on streptavidin chip SA (~1100 RU), BTLA 0-15 µM, HBS-EP pH 7.4, mean of four measurements, read-out: k1, association rate constant
  kon: 76400 M⁻¹ s⁻¹
[3]; SPR, Table S1 measurement No 1
  Kd: 13 nM
[3]; SPR, Table S1 measurement No 2
  Kd: 149 nM
[3]; SPR, Table S1 measurement No 3
  Kd: 217 nM
[3]; SPR, Table S1 measurement No 4
  Kd: 30.6 nM
[3]; SPR, biotin-Gly5 peptide on streptavidin chip, BTLA 0-15 µM, HBS-EP pH 7.4, mean of four measurements
  Kd: 102 nM
[3]; SPR, biotin-Gly5 peptide on streptavidin chip, BTLA 0-15 µM, HBS-EP pH 7.4, mean of four measurements, read-out: k−1, dissociation rate constant
  koff: 0.00332 s⁻¹

## CC(=O)N[C@@H](CCC(=O)O)C(=O)N[C@@H](CO)C(=O)N[C@H]1CSSC[C@@H](C(=O)N[C@@H](CO)C(=O)N2CCC[C@H]2C(=O)NCC(=O)N[C@@H](Cc2ccc(O)cc2)C(=O)N[C@@H](CCCNC(=N)N)C(=O)N[C@H](C(=O)N[C@@H](CCCCN)C(=O)N[C@@H](CCC(=O)O)C(=O)N[C@@H](C)C(=O)N[C@H]2CSSC[C@@H](C(=O)N[C@@H](CCC(=O)O)C(=O)N3CCC[C@H]3C(N)=O)NC(=O)[C@H](C(C)C)NC(=O)[C@H]([C@@H](C)O)NC(=O)CNC(=O)[C@H]([C@@H](C)O)NC(=O)[C@H](CC(C)C)NC(=O)[C@H](CCC(=O)O)NC(=O)CNC2=O)C(C)C)NC(=O)[C@H](CCCCN)NC(=O)[C@@H]2CCCN2C1=O [HVEM (14–39)^C16–C19, ^C29–C37] (Ac-ESCPKCSPGYRVKEACGELTGTVCEP-NH2; disulfide 3-6, 16-24)
[4]
  blocking of HVEM-Fc binding to BTLA (geometric fluorescence intensity, GMFI): slight decrease in the blocking capacity

## CC(=O)N[C@@H](CCC(=O)O)C(=O)N[C@@H](CO)C(=O)N[C@H]1CSSC[C@@H](C(=O)N[C@@H](CCC(=O)O)C(=O)N2CCC[C@H]2C(N)=O)NC(=O)[C@H](C(C)C)NC(=O)[C@H]([C@@H](C)O)NC(=O)CNC(=O)[C@H]([C@@H](C)O)NC(=O)[C@H](CC(C)C)NC(=O)[C@H](CCC(=O)O)NC(=O)CNC(=O)[C@@H]2CSSC[C@H](NC(=O)[C@H](CCCCN)NC(=O)[C@@H]3CCCN3C1=O)C(=O)N[C@@H](CO)C(=O)N1CCC[C@H]1C(=O)NCC(=O)N[C@@H](Cc1ccc(O)cc1)C(=O)N[C@@H](CCCNC(=N)N)C(=O)N[C@@H](C(C)C)C(=O)N[C@@H](CCCCN)C(=O)N[C@@H](CCC(=O)O)C(=O)N[C@@H](C)C(=O)N2 [HVEM (14–39)^C16–C37, ^C19–C29] (Ac-ESCPKCSPGYRVKEACGELTGTVCEP-NH2; disulfide 3-24, 6-16)
[4]
  blocking of HVEM-Fc binding to BTLA (geometric fluorescence intensity, GMFI): slight decrease in the blocking capacity

## Ac-ESSPKSSPGYRVKEASGELTGTVSEP-NH2 [HVEM (14–39)^C16,19,29,37S]
[4]
  blocking of HVEM-Fc binding to BTLA (geometric fluorescence intensity, GMFI): blocking capacity was completely lost

## BTLA (from UniProt Q7Z6A9)
[5]
  Kd: 250 nM

B1: HVEM (14–39) peptide (peptide, UniProt Q92956 52-77, looked up)
peptide: Ac-ESCPKCSPGYRVKEACGELTGTVCEP-NH2
modifications: disulfide 3-16, 6-24
notes: herpes virus entry mediator (HVEM), residues 14-39 of the numbering of the crystal structure PDB 2AW2, Cys15 replaced by serine; A C-terminal amide is likely (the scrambled peptide is printed as Ac-...-NH2); also called native HVEM (14–39) peptide; native peptide; source: synthetic peptide (solid-phase, Fmoc/tBu, RP-HPLC purified, disulfides formed stepwise)
[6]
  binding result: binds

B2: HVEM: herpes virus entry mediator, transmembrane glycoprotein of the TNFR superfamily, ligand of BTLA (protein)
chain: LPSCKEDEYPVGSECCPKCSPGYRVKEACGELTGTVCEPCPPGTYIAHLNGLSKCLQCQMCDPAMGLRASRNCSRTENAVCGCSPGHFCIVQDGDHCAACRAYATSSPGQRVQKGGTESQDTLCQNCPPGTFSPNGTLEECQHQTKCSWLVTKAGAGTSSSHWV
modifications: left off: Fc (detected with anti-human Fc/IgG), end not stated, kept
notes: herpes virus entry mediator, transmembrane glycoprotein of the TNFR superfamily, ligand of BTLA
[7]
  k−1: 0.12
